From US8076487B2, “Pyridone derivative and herbicide” (Kumiai Chemical Industry Co., Ltd., priority 2006, dated 2011) come the findings set out here.

Holding throughout (assay type): in vivo
Assay [1] concerns barnyardgrass (Echinochloa crus-galli (L.) P. Beauv. var. crus-galli). Kind of assay: Test Example 2: herbicidal effect by soil application to upland field. To be noted: soil surface spray, upland field soil, 1,000 g active ingredient per hectare, 21st day after application. In outline:
(§1)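 Seeds were sown in field soil, covered, and the soil surface sprayed with a water-diluted wettable powder at 1,000 g active ingredient per hectare in 1,000 L/ha. Plants grew in a greenhouse, and herbicidal effect was rated against a standard scale 21 days after application.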

Assay [2] deals with green foxtail (Setaria viridis (L.) P. Beauv.). The assay is described as above. Particulars: soil surface spray, upland field soil, 1,000 g active ingredient per hectare, 21st day after application. The procedure, abridged:
as §1

The test system of assay [3] is velvetleaf (Abutilon theophrasti medicus). Described as above. To be noted: soil surface spray, upland field soil, 1,000 g active ingredient per hectare, 21st day after application. The procedure, abridged: as §1
Assay [4] concerns slender amaranth (Amaranthus viridis L.). Described as above. To be noted: soil surface spray, upland field soil, 1,000 g active ingredient per hectare, 21st day after application. The procedure, abridged:
as §1

In assay [5] the test system is barnyardgrass (Echinochloa crus-galli (L.) P. Beauv. var. crus-galli). Kind of assay: Test Example 3: herbicidal effect by application to upland field (foliage treatment). To be noted: foliage treatment, 1,000 g active ingredient per 1 hectare, 14th day after application, greenhouse. The procedure, abridged:
(§2)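 Greenhouse-grown plants, two weeks old in field soil, were treated by spraying their foliage with a water dilution of wettable powder. Rate: 1,000 g active ingredient in a 1,000 L/ha equivalent volume. Assessment followed at 14 days.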

The test system of assay [6] is green foxtail (Setaria viridis (L.) P. Beauv.). The description is as above. Particulars: foliage treatment, 1,000 g active ingredient per 1 hectare, 14th day after application, greenhouse. In outline: as §2
For assay [7], the system named is velvetleaf (Abutilon theophrasti medicus). The assay is described as above. Particulars: foliage treatment, 1,000 g active ingredient per 1 hectare, 14th day after application, greenhouse. In outline:
as §2

The test system of assay [8] is slender amaranth (Amaranthus viridis L.). Described as above. Particulars: foliage treatment, 1,000 g active ingredient per 1 hectare, 14th day after application, greenhouse. In outline: as §2
In assay [9] the test system is Japanese bulrush (Scirpus juncoides Roxb.). Kind of assay: Test Example 1: herbicidal effect by soil application to paddy field. Particulars: for herbicidal effect, Scirpus juncoides Roxb.: paddy field soil application, active ingredient 1,000 g per 1 hectare, wettable powder added dropwise to water surface the day after sowing, examined on the 21st day after application. The procedure, abridged: (§3)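 Plants were sown in flooded (3 cm) paddy soil and evaluated for herbicidal effect 21 days after soil application in a greenhouse.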

In assay [10] the test system is early watergrass (Echinochloa oryzicola Vasing). The assay is described as above. To be noted: for herbicidal effect, Echinochloa oryzicola Vasing: paddy field soil application, active ingredient 1,000 g per 1 hectare, wettable powder added dropwise to water surface the day after sowing, examined on the 21st day after application. The procedure, abridged: as §3
Assay [11] concerns heartshape false pickerelweed (Monochoria vaginalis (Burm.f.) C.Presl). The description is as above. To be noted: for herbicidal effect, Monochoria vaginalis (Burm. f.) C. Presl: paddy field soil application, active ingredient 1,000 g per 1 hectare, wettable powder added dropwise to water surface the day after sowing, examined on the 21st day after application. In outline:
as §3

[12] abbreviates: soil application to paddy field, rated by standard of Table 34.

For the compound `CS(=O)(=O)CCn1c(C(F)(F)F)ccc(C(=O)C2=C(O)C3CCC(C3)C2=O)c1=O` (stereo not drawn) [III-30], the “herbicidal effect (index), Barnyardgrass” value in assay [1] is 5 (90% or more of herbicidal effect and crop phytotoxicity). The “herbicidal effect (index), Green Foxtail” value in assay [2] is 5 (90% or more of herbicidal effect and crop phytotoxicity). Further, the “herbicidal effect (index), Velvetleaf” value in assay [3] is 5 (90% or more of herbicidal effect and crop phytotoxicity). Also, the “herbicidal effect (index), Slender Amaranth” value in assay [4] is 5 (90% or more of herbicidal effect and crop phytotoxicity). The “herbicidal effect, Barnyardgrass” value in assay [5] was 5 (90% or more of herbicidal effect and crop phytotoxicity). Besides, in assay [6], the “herbicidal effect, Green Foxtail” value is 5 (90% or more of herbicidal effect and crop phytotoxicity). In assay [7], the “herbicidal effect, Velvetleaf” value is 5 (90% or more of herbicidal effect and crop phytotoxicity). In addition, the “herbicidal effect, Slender Amaranth” value in assay [8] was 5 (90% or more of herbicidal effect and crop phytotoxicity).

For `O=C1CCCC(O)=C1C(=O)c1ccc(C(F)(F)F)n(NCCCCl)c1=O` [I-167], the “herbicidal effect (index), Barnyardgrass” value in [1] is 5 (90% or more of herbicidal effect and crop phytotoxicity). For the same compound, the “herbicidal effect (index), Green Foxtail” value in [2] was 5 (90% or more of herbicidal effect and crop phytotoxicity). The “herbicidal effect (index), Velvetleaf” value in assay [3] was 5 (90% or more of herbicidal effect and crop phytotoxicity). In assay [4], the “herbicidal effect (index), Slender Amaranth” value was 5 (90% or more of herbicidal effect and crop phytotoxicity). In addition, the “herbicidal effect, Scirpus juncoides Roxb.” value in assay [9] is 5 (90% or more of herbicidal effect and crop phytotoxicity). Besides, the “herbicidal effect, Echinochloa oryzicola Vasing” value in assay [10] was 5 (90% or more of herbicidal effect and crop phytotoxicity). Besides, the “herbicidal effect, Monochoria vaginalis (Burm. f.) C. Presl” value (“herbicidal effect, Monochoria vaginalis” below) in [11] was 5 (90% or more of herbicidal effect and crop phytotoxicity).

Regarding `N#CC(C(=O)c1ccc(C(F)(F)F)n(-c2ccccc2)c1=O)=C(O)C1CC1` [V-23], the “herbicidal effect (index), Barnyardgrass” value in [1] was 5 (90% or more of herbicidal effect and crop phytotoxicity). Besides, the “herbicidal effect (index), Green Foxtail” value in assay [2] is 5 (90% or more of herbicidal effect and crop phytotoxicity). Moreover, the “herbicidal effect (index), Velvetleaf” value in assay [3] is 5 (90% or more of herbicidal effect and crop phytotoxicity). The “herbicidal effect (index), Slender Amaranth” value in assay [4] is 5 (90% or more of herbicidal effect and crop phytotoxicity). Moreover, the “herbicidal effect (index), Scirpus juncoides Roxb.” value in [9] (setting [12]) was 5 (90% or more of herbicidal effect and crop phytotoxicity). For the same compound, the “herbicidal effect (index), Echinochloa oryzicola Vasing” value in assay [10] (setting [12]) is 5 (90% or more of herbicidal effect and crop phytotoxicity). Besides, the “herbicidal effect (index), Monochoria vaginalis (Burm.f.) C.Presl” value in [11] (setting [12]) is 5 (90% or more of herbicidal effect and crop phytotoxicity).

Consider `Cc1ccc(C(=O)C2=C(O)CCCC2=O)c(=O)n1-c1ccc(Cl)cc1` [I-233], for which, in [1], the “herbicidal effect (index), Barnyardgrass” value is 4 (70 to less than 90% of herbicidal effect and crop phytotoxicity). Besides, the “herbicidal effect (index), Green Foxtail” value in [2] is 3 (50 to less than 70% of herbicidal effect and crop phytotoxicity). The “herbicidal effect (index), Velvetleaf” value in [3] was 5 (90% or more of herbicidal effect and crop phytotoxicity). In [4], the “herbicidal effect (index), Slender Amaranth” value is 5 (90% or more of herbicidal effect and crop phytotoxicity). The “herbicidal effect, Scirpus juncoides Roxb.” value in assay [9] was 5 (90% or more of herbicidal effect and crop phytotoxicity). Also, the “herbicidal effect, Echinochloa oryzicola Vasing” value in assay [10] is 5 (90% or more of herbicidal effect and crop phytotoxicity). Besides, in assay [11], the “herbicidal effect, Monochoria vaginalis” value was 5 (90% or more of herbicidal effect and crop phytotoxicity).

In the case of `O=C1CCCC(O)=C1C(=O)c1ccc(C(F)(F)F)n(Cc2cc(Cl)nc(Cl)c2)c1=O` [I-124], the “herbicidal effect (index), Barnyardgrass” value in assay [1] was 5 (90% or more of herbicidal effect and crop phytotoxicity). In assay [2], the “herbicidal effect (index), Green Foxtail” value is 5 (90% or more of herbicidal effect and crop phytotoxicity). In addition, the “herbicidal effect (index), Velvetleaf” value in assay [3] is 5 (90% or more of herbicidal effect and crop phytotoxicity). Also, the “herbicidal effect (index), Slender Amaranth” value in assay [4] was 5 (90% or more of herbicidal effect and crop phytotoxicity). Besides, in assay [9], the “herbicidal effect, Scirpus juncoides Roxb.” value was 5 (90% or more of herbicidal effect and crop phytotoxicity). In addition, in [10], the “herbicidal effect, Echinochloa oryzicola Vasing” value was 5 (90% or more of herbicidal effect and crop phytotoxicity). In addition, in [11], the “herbicidal effect, Monochoria vaginalis” value was 5 (90% or more of herbicidal effect and crop phytotoxicity).

As for `CC(C)(C)c1ccc(-n2c(C(F)(F)F)ccc(C(=O)C3=C(O)CCCC3=O)c2=O)cc1` [I-96], in assay [1], the “herbicidal effect (index), Barnyardgrass” value is 5 (90% or more of herbicidal effect and crop phytotoxicity). In assay [2], the “herbicidal effect (index), Green Foxtail” value was 5 (90% or more of herbicidal effect and crop phytotoxicity). Moreover, in assay [3], the “herbicidal effect (index), Velvetleaf” value is 5 (90% or more of herbicidal effect and crop phytotoxicity). In addition, in [4], the “herbicidal effect (index), Slender Amaranth” value is 3 (50 to less than 70% of herbicidal effect and crop phytotoxicity). In assay [9], the “herbicidal effect, Scirpus juncoides Roxb.” value was 5 (90% or more of herbicidal effect and crop phytotoxicity). Further, in assay [10], the “herbicidal effect, Echinochloa oryzicola Vasing” value was 5 (90% or more of herbicidal effect and crop phytotoxicity). Further, the “herbicidal effect, Monochoria vaginalis” value in assay [11] is 5 (90% or more of herbicidal effect and crop phytotoxicity).

Regarding `O=C(C1=C(O)C2CCC(C2)C1=O)c1ccc(C(F)(F)F)n(-c2c(F)cccc2F)c1=O` (stereo not drawn) [III-37], the “herbicidal effect (index), Barnyardgrass” value in assay [1] was 4 (70 to less than 90% of herbicidal effect and crop phytotoxicity). Further, the “herbicidal effect (index), Green Foxtail” value in assay [2] was 4 (70 to less than 90% of herbicidal effect and crop phytotoxicity). The “herbicidal effect (index), Velvetleaf” value in assay [3] is 5 (90% or more of herbicidal effect and crop phytotoxicity). In addition, the “herbicidal effect (index), Slender Amaranth” value in assay [4] is 4 (70 to less than 90% of herbicidal effect and crop phytotoxicity). Moreover, the “herbicidal effect, Scirpus juncoides Roxb.” value in [9] is 4 (70 to less than 90% of herbicidal effect and crop phytotoxicity). Further, in [10], the “herbicidal effect, Echinochloa oryzicola Vasing” value is 5 (90% or more of herbicidal effect and crop phytotoxicity). For the same compound, the “herbicidal effect, Monochoria vaginalis” value in assay [11] was 5 (90% or more of herbicidal effect and crop phytotoxicity).

In the case of `CCCS(=O)(=O)Oc1c(C(=O)c2ccc(C(F)(F)F)n(CC3CCCO3)c2=O)cnn1CC` (stereo not drawn) [IV-207], the “herbicidal effect (index), Barnyardgrass” value in assay [1] was 5 (90% or more of herbicidal effect and crop phytotoxicity). Also, in [2], the “herbicidal effect (index), Green Foxtail” value was 5 (90% or more of herbicidal effect and crop phytotoxicity). Moreover, in [3], the “herbicidal effect (index), Velvetleaf” value is 5 (90% or more of herbicidal effect and crop phytotoxicity). Also, the “herbicidal effect (index), Slender Amaranth” value in [4] is 5 (90% or more of herbicidal effect and crop phytotoxicity). Moreover, the “herbicidal effect, Scirpus juncoides Roxb.” value in assay [9] was 5 (90% or more of herbicidal effect and crop phytotoxicity). The “herbicidal effect, Echinochloa oryzicola Vasing” value in assay [10] is 5 (90% or more of herbicidal effect and crop phytotoxicity). In addition, the “herbicidal effect, Monochoria vaginalis” value in [11] was 5 (90% or more of herbicidal effect and crop phytotoxicity).
